Data as given in patent US20190315823A1, “SMALL CATIONIC ANTI-BIOFILM AND IDR PEPTIDES” (priority 2013, published 2019).
Read-outs that look alike come from different tables or passages of the source. Marks after values point to notes of the source that are not given here. Peptide text beside a SMILES is read from it.

Assays:
Format in all cases: cell-based
P. aeruginosa biofilm = test system: P. aeruginosa biofilm
Protocol: (§1) Methods of assessment of anti-biofilm activity—Biofilm formation was initially analyzed using a static abiotic solid surface assay as described elsewhere (de la Fuente-Nunez et al., 2012). […] Planktonic cells were removed, biofilm cells adhering to the side of the tubes were stained with crystal violet, and absorbance at 595 nm was measured using a microtiter plate reader (Bio-Tek Instruments Inc., United States). Some peptides were screened against two Gram negative organisms, P. aeruginosa and K. pneumoniae using a Bioflux apparatus (AutoMate Scientific, Berkeley, Calif.; http://www.autom8.com/bioflux_biofilm.html), which allows for the high-throughput, real-time analysis of biofilms.

S. aureus biofilm = test system: S. aureus biofilm
Protocol: as §1

[1] = test system: LPS-stimulated human peripheral blood mononuclear cells (IL1-β); details: cells stimulated with 10 ng/ml LPS
[2] = test system: human peripheral blood mononuclear cells (MCP-1); assay: SPOT-synthesized derivative screen: production of chemokine MCP-1; details: No LPS
In short: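 MCP-1 was quantified by capture ELISA in cleared culture supernatants of treated human peripheral blood mononuclear cells. Cells came from heparinized volunteer blood via Ficoll gradient and were seeded at 0.75 to 1×10^6 cells/ml (37 °C, 5% CO2).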

[3] = Table 12A, 1002-2013 compared to LPS control of 889 pg/ml
[4] = Table 12A, LPS alone 984 pg/ml, starred values (1002-2013) determined separately, LPS alone 889 pg/ml
[5] = Table 12A, background subtracted (21.3 pg/ml)
[6] = concentration that reduced biofilm growth by 50%

`CC[C@H](C)[C@H](NC(=O)[C@H](CCCNC(=N)N)NC(=O)[C@@H](NC(=O)[C@H](CCCCN)NC(=O)[C@@H](NC(=O)[C@@H](NC(=O)[C@H](CC(C)C)NC(=O)[C@H](CCCNC(=N)N)NC(=O)[C@@H](N)CCCNC(=N)N)[C@@H](C)CC)C(C)C)C(C)C)C(=O)N[C@@H](Cc1c[nH]c2ccccc12)C(=O)N[C@@H](CCCNC(=N)N)C(=O)N[C@@H](CCCNC(=N)N)C(N)=O` [Peptide 2007] (H-RRLIVKVRIWRR-NH2; N-terminus assumed) was tested, and the “MBIC50 P. aeruginosa” value (P. aeruginosa biofilm; biofilm) was 5 µg/mL, the “MBIC50 S. aureus” value (S. aureus biofilm; biofilm) was 10 µg/mL and the “Fold change in IL1β relative to no peptide LPS stimulated cells” value [1, 3] was 0.88. The “IL1β Production” value [1, 4] was 867 pg/mL, the “Fold increase in MCP1 cf. untreated cells” value (shortened to “Fold increase”) ([2]; Table 12A) was 386 and the “MCP1” value [2, 5] was 7954 pg/mL.
For `CC[C@H](C)[C@H](NC(=O)[C@H](CCCNC(=N)N)NC(=O)[C@@H](NC(=O)[C@H](CCCCN)NC(=O)[C@@H](NC(=O)[C@@H](NC(=O)[C@H](Cc1c[nH]c2ccccc12)NC(=O)[C@H](CCCNC(=N)N)NC(=O)[C@@H](N)CCCNC(=N)N)[C@@H](C)CC)C(C)C)C(C)C)C(=O)N[C@@H](CCCNC(=N)N)C(=O)N[C@@H](CCCNC(=N)N)C(=O)N[C@@H](CCCNC(=N)N)C(N)=O` [Peptide 2008] (H-RRWIVKVRIRRR-NH2; N-terminus assumed), the “MBIC50 P. aeruginosa” value (P. aeruginosa biofilm; biofilm) was 10 µg/mL, the “MBIC50 S. aureus” value (S. aureus biofilm; biofilm) was 10 µg/mL and the “Fold change in IL1β relative to no peptide LPS stimulated cells” value [1, 3] was 0.25. For the same compound, the “IL1β Production” value [1, 4] was 250 pg/mL, the “Fold increase” value ([2]; Table 12A) was 2146 and the “MCP1” value [2, 5] was 45524 pg/mL.
`CC[C@H](C)[C@H](NC(=O)[C@H](CCCNC(=N)N)NC(=O)[C@@H](NC(=O)[C@H](CCCCN)NC(=O)[C@@H](NC(=O)[C@@H](NC(=O)[C@H](CC(C)C)NC(=O)[C@H](CCCNC(=N)N)NC(=O)[C@@H](N)C(C)C)[C@@H](C)CC)C(C)C)C(C)C)C(=O)N[C@@H](Cc1c[nH]c2ccccc12)C(=O)N[C@@H](CCCNC(=N)N)C(=O)N[C@@H](CCCNC(=N)N)C(N)=O` [Peptide 2001] (H-VRLIVKVRIWRR-NH2; N-terminus assumed) was tested, and the “MBIC50 P. aeruginosa” value (P. aeruginosa biofilm; [6]) was 2.5 µg/mL, the “MBIC50 S. aureus” value (S. aureus biofilm; [6]) was 10 µg/mL and the “Fold change in IL1β relative to no peptide LPS stimulated cells” value [1, 3] was 0.08. For the same compound, the “IL1β Production” value [1, 4] was 76 pg/mL, the “Fold increase” value ([2]; Table 12A) was 765 and the “MCP1” value [2, 5] was 16300 pg/mL.
For `CC[C@H](C)[C@H](NC(=O)[C@H](CCCNC(=N)N)NC(=O)[C@H](Cc1c[nH]c2ccccc12)NC(=O)[C@@H](NC(=O)[C@@H](NC(=O)[C@H](CC(C)C)NC(=O)[C@H](Cc1c[nH]c2ccccc12)NC(=O)[C@H](CCCNC(=N)N)NC(=O)[C@H](CCC(N)=O)NC(=O)[C@@H](N)C(C)C)[C@@H](C)CC)C(C)C)C(=O)N[C@@H](CCCNC(=N)N)C(=O)N[C@@H](CCCCN)C(N)=O` [Peptide 1002] (H-VQRWLIVWRIRK-NH2; N-terminus assumed), the “MBIC50 P. aeruginosa” value (P. aeruginosa biofilm; biofilm) was 5 µg/mL, the “Fold change in IL1β relative to no peptide LPS stimulated cells” value ([1]; Table 12) was 0.05 and the “IL1β Production” value ([1]; Table 12, LPS alone 1313 (HH2 derivatives), 1927 (1018 derivatives), 2455 (1002 and hybrid peptides) pg/ml) was 127 pg/mL. For the same compound, the “Fold change in IL1β relative to no peptide LPS stimulated cells” value [1, 3] was 0.13, the “IL1β Production (pg/ml)” value [1, 4] was 111* pg/ml and the “Fold increase” value ([2]; Table 12, human PBMC, peptide at ~18-24 μM) was 3.5. The “MCP1” value ([2]; Table 12, human PBMC, peptide at ~18-24 μM, background subtracted 139 (HH2 derivatives), 170 (1018 derivatives), 242 (1002 and hybrid peptides) pg/ml) was 603.2 pg/mL, the “Fold increase” value ([2]; Table 12A) was 576 and the “MCP1” value [2, 5] was 11994 pg/mL.
With `CC[C@H](C)[C@H](NC(=O)[C@@H](NC(=O)[C@H](CCCCN)NC(=O)[C@@H](NC(=O)[C@H](CCCNC(=N)N)NC(=O)[C@H](CCCNC(=N)N)NC(=O)[C@@H](NC(=O)[C@H](CCCNC(=N)N)NC(=O)[C@H](CCC(N)=O)NC(=O)[C@@H](N)Cc1c[nH]c2ccccc12)C(C)C)C(C)C)C(C)C)C(=O)N[C@@H](CCCNC(=N)N)C(=O)N[C@@H](CCCCN)C(N)=O` [Peptide 2013] (H-WQRVRRVKVIRK-NH2; N-terminus assumed) the “MBIC50 P. aeruginosa” value (P. aeruginosa biofilm; biofilm) was 20 µg/mL, the “MBIC50 S. aureus” value (S. aureus biofilm; biofilm) was over 80 µg/mL and the “Fold change in IL1β relative to no peptide LPS stimulated cells” value [1, 3] was 0.93. For the same compound, the “IL1β Production (pg/ml)” value [1, 4] was 830* pg/ml, the “Fold increase” value ([2]; Table 12A) was 31 and the “MCP1” value [2, 5] was 645 pg/mL.
For `CC[C@H](C)[C@H](NC(=O)[C@H](CCCNC(=N)N)NC(=O)[C@H](CC(C)C)NC(=O)[C@H](CCC(N)=O)NC(=O)[C@@H](N)C(C)C)C(=O)N[C@@H](CCCNC(=N)N)C(=O)N[C@H](C(=O)N[C@@H](CCCCN)C(=O)N[C@H](C(=O)N[C@H](C(=O)N[C@@H](CCCNC(=N)N)C(=O)N[C@@H](CCCCN)C(N)=O)[C@@H](C)CC)C(C)C)C(C)C` [Peptide 2011] (H-VQLRIRVKVIRK-NH2; N-terminus assumed), the “MBIC50 P. aeruginosa” value (P. aeruginosa biofilm; biofilm) was 10 µg/mL, the “Fold change in IL1β relative to no peptide LPS stimulated cells” value [1, 3] was 0.62 and the “IL1β Production (pg/ml)” value [1, 4] was 550* pg/ml. The “Fold increase” value ([2]; Table 12A) was 38 and the “MCP1” value [2, 5] was 796 pg/mL.
For `CC[C@H](C)[C@H](NC(=O)[C@H](CCCNC(=N)N)NC(=O)[C@H](Cc1c[nH]c2ccccc12)NC(=O)[C@H](CCCNC(=N)N)NC(=O)[C@@H](NC(=O)[C@H](CC(C)C)NC(=O)[C@H](Cc1c[nH]c2ccccc12)NC(=O)[C@H](CCCNC(=N)N)NC(=O)[C@H](CCC(N)=O)NC(=O)[C@@H](N)CCCCN)[C@@H](C)CC)C(=O)N[C@@H](CCCNC(=N)N)C(=O)N[C@@H](CCCCN)C(N)=O` [Peptide 2010] (H-KQRWLIRWRIRK-NH2; N-terminus assumed), the “MBIC50 P. aeruginosa” value (P. aeruginosa biofilm; biofilm) was 2.5 µg/mL, the “Fold change in IL1β relative to no peptide LPS stimulated cells” value [1, 3] was 0.42 and the “IL1β Production (pg/ml)” value [1, 4] was 377* pg/ml. For the same compound, the “Fold increase” value ([2]; Table 12A) was 266 and the “MCP1” value [2, 5] was 5649 pg/mL.
With `CC[C@H](C)[C@H](NC(=O)[C@H](CCCNC(=N)N)NC(=O)[C@H](CC(C)C)NC(=O)[C@H](CCC(N)=O)NC(=O)[C@@H](N)Cc1c[nH]c2ccccc12)C(=O)N[C@@H](CCCNC(=N)N)C(=O)N[C@H](C(=O)N[C@@H](CCCCN)C(=O)N[C@H](C(=O)N[C@H](C(=O)N[C@@H](CCCNC(=N)N)C(=O)N[C@@H](CCCCN)C(N)=O)[C@@H](C)CC)C(C)C)C(C)C` [Peptide 2012] (H-WQLRIRVKVIRK-NH2; N-terminus assumed) the “MBIC50 P. aeruginosa” value (P. aeruginosa biofilm; biofilm) was 20 µg/mL, the “Fold change in IL1β relative to no peptide LPS stimulated cells” value [1, 3] was 0.43 and the “IL1β Production (pg/ml)” value [1, 4] was 381* pg/ml. For the same compound, the “Fold increase” value ([2]; Table 12A) was 227 and the “MCP1” value [2, 5] was 4824 pg/mL.
`CC[C@H](C)[C@H](NC(=O)[C@H](CCCNC(=N)N)NC(=O)[C@@H](NC(=O)[C@H](CCCCN)NC(=O)[C@@H](NC(=O)[C@@H](NC(=O)[C@H](Cc1c[nH]c2ccccc12)NC(=O)[C@H](CCCNC(=N)N)NC(=O)[C@@H](N)C(C)C)[C@@H](C)CC)C(C)C)C(C)C)C(=O)N[C@@H](CCCNC(=N)N)C(=O)N[C@@H](CCCNC(=N)N)C(=O)N[C@@H](CCCNC(=N)N)C(N)=O` [Peptide 2006] (H-VRWIVKVRIRRR-NH2; N-terminus assumed) was tested, and the “MBIC50 P. aeruginosa” value (P. aeruginosa biofilm; [6]) was 20 µg/mL, the “MBIC50 S. aureus” value (S. aureus biofilm; [6]) was 10 µg/mL and the “Fold change in IL1β relative to no peptide LPS stimulated cells” value [1, 3] was 0.33. For the same compound, the “IL1β Production” value [1, 4] was 322 pg/mL, the “Fold increase” value ([2]; Table 12A) was 316 and the “MCP1” value [2, 5] was 6714 pg/mL.
`CC[C@H](C)[C@H](NC(=O)[C@H](CCCNC(=N)N)NC(=O)[C@H](Cc1c[nH]c2ccccc12)NC(=O)[C@H](CCCNC(=N)N)NC(=O)[C@@H](NC(=O)[C@H](CC(C)C)NC(=O)[C@H](CC(C)C)NC(=O)[C@H](CCCNC(=N)N)NC(=O)[C@H](Cc1c[nH]c2ccccc12)NC(=O)[C@@H](N)CCCCN)[C@@H](C)CC)C(=O)N[C@@H](CCC(N)=O)C(=O)N[C@@H](CCCCN)C(N)=O` [Peptide 2009] (H-KWRLLIRWRIQK-NH2; N-terminus assumed) was tested, and the “MBIC50 P. aeruginosa” value (P. aeruginosa biofilm; biofilm) was 2.5 µg/mL, the “Fold change in IL1β relative to no peptide LPS stimulated cells” value [1, 3] was 0.08 and the “IL1β Production (pg/ml)” value [1, 4] was 74* pg/ml. The “Fold increase” value ([2]; Table 12A) was 586 and the “MCP1” value [2, 5] was 12475 pg/mL.
